Laboratory results: PubChem BioAssay (NCI)
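Values below derive from 48-hour exposures of cells grown in 96-well plates, with endpoints linearly interpolated between the two concentrations bracketing the appropriate inhibition level. TGI: concentration producing complete growth inhibition.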

What was measured:
Experiment in all cases: NCI tumour cell line growth inhibition, 48 h
EKVX NSCLC = tested on: EKVX NSCLC
HOP-92 NSCLC = tested on: HOP-92 NSCLC
A549 NSCLC = tested on: A549 NSCLC
U251 CNS = tested on: U251 CNS
M14 melanoma = tested on: M14 melanoma
UACC-257 melanoma = tested on: UACC-257 melanoma
NCI-H522 lung = tested on: NCI-H522 lung
OVCAR-8 ovarian = tested on: OVCAR-8 ovarian
NCI-H460 lung = tested on: NCI-H460 lung
HOP-62 NSCLC = tested on: HOP-62 NSCLC
MOLT-4 leukemia = tested on: MOLT-4 leukemia
SNB-78 CNS = tested on: SNB-78 CNS
SNB-19 CNS = tested on: SNB-19 CNS
TK-10 renal = tested on: TK-10 renal
UO-31 renal = tested on: UO-31 renal
IGROV1 ovarian = tested on: IGROV1 ovarian
OVCAR-5 ovarian = tested on: OVCAR-5 ovarian
CCRF-CEM leukemia = tested on: CCRF-CEM leukemia
HL-60(TB) leukemia = tested on: HL-60(TB) leukemia
M19-MEL melanoma = tested on: M19-MEL melanoma
SK-MEL-28 melanoma = tested on: SK-MEL-28 melanoma
SF-268 CNS = tested on: SF-268 CNS
RXF 393 renal = tested on: RXF 393 renal
SK-OV-3 ovarian = tested on: SK-OV-3 ovarian
UACC-62 melanoma = tested on: UACC-62 melanoma
KM12 colon = tested on: KM12 colon
NCI-H23 lung = tested on: NCI-H23 lung
ACHN renal = tested on: ACHN renal
A498 renal = tested on: A498 renal
SR leukemia = tested on: SR leukemia
HT29 colon = tested on: HT29 colon
SF-295 CNS = tested on: SF-295 CNS
DMS 273 small cell lung = tested on: DMS 273 small cell lung
SF-539 CNS = tested on: SF-539 CNS
COLO 205 colon = tested on: COLO 205 colon
K-562 leukemia = tested on: K-562 leukemia
OVCAR-3 ovarian = tested on: OVCAR-3 ovarian
SK-MEL-5 melanoma = tested on: SK-MEL-5 melanoma
SK-MEL-2 melanoma = tested on: SK-MEL-2 melanoma
MALME-3M melanoma = tested on: MALME-3M melanoma
SNB-75 CNS = tested on: SNB-75 CNS
RPMI-8226 leukemia = tested on: RPMI-8226 leukemia
SN12C renal = tested on: SN12C renal
SW-620 colon = tested on: SW-620 colon
DMS 114 small cell lung = tested on: DMS 114 small cell lung
LXFL 529 NSCLC = tested on: LXFL 529 NSCLC
HCT-15 colon = tested on: HCT-15 colon
OVCAR-4 ovarian = tested on: OVCAR-4 ovarian
786-0 renal = tested on: 786-0 renal
NCI-H226 lung = tested on: NCI-H226 lung
CAKI-1 renal = tested on: CAKI-1 renal
LOX IMVI melanoma = tested on: LOX IMVI melanoma
RXF-631 renal = tested on: RXF-631 renal
XF 498 CNS = tested on: XF 498 CNS
HOP-18 NSCLC = tested on: HOP-18 NSCLC
HCC-2998 colon = tested on: HCC-2998 colon
DLD-1 colon = tested on: DLD-1 colon
KM20L2 colon = tested on: KM20L2 colon
HCT-116 colon = tested on: HCT-116 colon

Measured: TGI

CC1(C(=O)Nc2ccc3ccccc3c2)CC2(C)CC(C)(C1)C(O)NC2=O (centres undefined)
not listed: SF-539 CNS | COLO 205 colon | K-562 leukemia | OVCAR-3 ovarian | SK-MEL-5 melanoma | SK-MEL-2 melanoma | MALME-3M melanoma | SNB-75 CNS | RPMI-8226 leukemia | SN12C renal | SW-620 colon | DMS 114 small cell lung | LXFL 529 NSCLC | HCT-15 colon | OVCAR-4 ovarian | 786-0 renal | NCI-H226 lung | CAKI-1 renal | LOX IMVI melanoma | RXF-631 renal | XF 498 CNS | HOP-18 NSCLC | HCC-2998 colon | DLD-1 colon | KM20L2 colon | HCT-116 colon
> 100 µM: all other assays above

CN=C(N)c1ccc(N=C(N)c2ccc(C(N)=Nc3ccc(C(N)=NC)cc3)cc2)cc1
not listed: EKVX NSCLC | SNB-78 CNS | NCI-H23 lung | A498 renal | SR leukemia | XF 498 CNS | HOP-18 NSCLC | HCC-2998 colon | DLD-1 colon | KM20L2 colon | HCT-116 colon
> 100 µM: all other assays above

CCOC(=O)C(CC/C=C\c1ccccc1)N1CCC[C@H]1C(=O)OC (some centres undefined)
not listed: HCT-15 colon | RXF-631 renal
> 100 µM: all other assays above

O=C(c1ccccc1)c1nc2ccc(Cl)cc2c2c1CCCO2
not listed: HOP-92 NSCLC | A549 NSCLC | UACC-257 melanoma | CCRF-CEM leukemia | HL-60(TB) leukemia | SK-OV-3 ovarian | A498 renal | SF-539 CNS | SK-MEL-5 melanoma | SNB-75 CNS | 786-0 renal | RXF-631 renal | DLD-1 colon
> 100 µM: all other assays above
